Measurements reported in PMC12044090 (EJNMMI Research, 2025).

Biological target: T1, FAP (HT1080-hFAP cells) (Homo sapiens, UniProt Q12884)
T1 sequence (Q12884 1-760): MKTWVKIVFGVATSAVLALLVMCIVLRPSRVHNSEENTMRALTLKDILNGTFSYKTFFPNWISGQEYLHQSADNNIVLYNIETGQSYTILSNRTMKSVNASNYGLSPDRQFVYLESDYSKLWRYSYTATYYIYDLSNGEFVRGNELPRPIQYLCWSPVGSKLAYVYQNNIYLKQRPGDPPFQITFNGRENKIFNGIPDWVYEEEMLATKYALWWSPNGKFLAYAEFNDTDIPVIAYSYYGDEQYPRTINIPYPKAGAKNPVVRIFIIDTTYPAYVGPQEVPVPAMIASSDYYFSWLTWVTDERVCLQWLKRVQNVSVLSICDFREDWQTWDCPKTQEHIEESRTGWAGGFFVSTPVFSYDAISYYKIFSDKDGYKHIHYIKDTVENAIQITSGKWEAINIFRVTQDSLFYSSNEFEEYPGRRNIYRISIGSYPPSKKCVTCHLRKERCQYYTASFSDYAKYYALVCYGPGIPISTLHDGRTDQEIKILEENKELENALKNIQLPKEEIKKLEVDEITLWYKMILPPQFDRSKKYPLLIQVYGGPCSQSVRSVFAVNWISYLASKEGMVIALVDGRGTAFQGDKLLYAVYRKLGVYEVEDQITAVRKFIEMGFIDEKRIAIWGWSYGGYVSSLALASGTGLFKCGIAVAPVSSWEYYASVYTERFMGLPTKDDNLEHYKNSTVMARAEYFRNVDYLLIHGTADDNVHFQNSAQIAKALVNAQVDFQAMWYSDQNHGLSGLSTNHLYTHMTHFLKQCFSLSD
Assay: Affinity assay: competition against [68Ga]Ga-FAP2286 in HT1080-hFAP cells
Assay type: binding

SMILES | IC50 [nM]
CCCCCC(=O)N[C@H]1CSCc2cc(CSCCNC(=O)CCCCCNC(=O)CC[C@H](NC(=O)CCC(C(=O)O)N3CCN(CC(=O)O)CCN(CC(=O)O)CCN(CC(=O)O)CC3)C(=O)NCCCOc3ccc4nccc(C(=O)NCC(=O)N5CC(F)(F)C[C@H]5C#N)c4c3)cc(c2)CSC[C@@H](C(=O)O)NC(=O)[C@H](Cc2ccccc2)NC(=O)[C@H](CCC(N)=O)NC(=O)[C@H]([C@@H](C)O)NC(=O)[C@@H]2CCCN2C(=O)[C@@H]2CCCN2C1=O (some centres unmarked) [BiFAPI] | 11.4 ± 1.66
CCCCCC(=O)N[C@H]1CSCc2cc(CSCCNC(=O)CN3CCN(CC(=O)O)CCN(CC(=O)O)CCN(CC(=O)O)CC3)cc(c2)CSC[C@@H](C(=O)O)NC(=O)[C@H](Cc2ccccc2)NC(=O)[C@H](CCC(N)=O)NC(=O)[C@H]([C@@H](C)O)NC(=O)[C@@H]2CCCN2C(=O)[C@@H]2CCCN2C1=O [FAP2286] | 6.58 ± 1.6
